# Measured values from article PMC5750238 (2018).
# How the values were obtained:
# [1] = system: Mango construct (RNA, aptamer) GGGAGAUCGUCCUAAGCGCUUUCGAGCGUUUAGCCUGGGUCGCGAAGGGACGGUGCGGAGAGGAGAGCGACUCAGGGAUGGUGAAGCCUCCACGCCAUCGACGGUCUCCCGAUACUCAUCGCGACUGAAGGAGGCACGGUCGGCAUUGUACUUCGGUACGAUGCGCAAGCGACUUCGGUCGUUUGCCGAUGGGUAUC; test: fluorescence activation; conditions: 125 mM KCl, 1 mM MgCl2; 1x TB assembly buffer; EC50 given as N/A; titration to 2 µM
# [2] = system: Spinach construct (RNA, aptamer) GGGAGAUGCUCCCAGUUACAUUCGUGUAGCUGGCCGUGCGGUAAGGACGGGUCCCUAGCUAAUUCGUUAGUUAGGUUGAGUAGAGUGUGAGACCGUACGGGCUGGUGAAGCCUCCACGCCAGCGAGCGUCUCCCGCAUGGCAACGCGACUGAAGGAGGCACGGUCGGCCAUCGGUUUCGACCGGUGGCGGUAGAGCCUUCGGGCUUUACCCGUUGUCAUGC; test: fluorescence titration of RNA with fluorophore; conditions: 125 mM KCl, 1 mM MgCl2, 1x TB assembly buffer, 20 nM RNA, apparent
# [3] = system: Broccoli construct (RNA, aptamer) GGGAGAUGCUCCCAGUUACAUUCGUGUAGCUGGCCGUGCGAGACGGUCGGGUCCAUAGCUAAUUCGUUAGUUAUGUCGAGUAGAGUGUGGGCUCGUACGGGCUGGUGAAGCCUCCACGCCAGCGAGCGUCUCCCGCAUGGCAACGCGACUGAAGGAGGCACGGUCGGCCAUCGGUUUCGACCGGUGGCGGUAGAGCCUUCGGGCUUUACCCGUUGUCAUGC; test: fluorescence titration of RNA with fluorophore; conditions: 125 mM KCl, 1 mM MgCl2; 1x TB assembly buffer; 20 nM RNA; fluorophore 1 nM to 2 µM; apparent
# [4] = system: 2H-AE construct (RNA, other) GGAAUUCAGGAGCUCGGGAGCGUCCACUGCUCCUGAGCGCUCCAGUGGACGGAGCCCUGGUGAAGCCUCCACGCCAGGUCCUGGAUUCCGCAUGUAUCGAGGACUGAAGGAGGCACGGUCCCACGGGCUCCGAGACGUGGAGUCCGUGUCCGCACGUCUCGCGGAUCGAUGCAUGC; test: fluorescence activation; conditions: 125 mM KCl, 1 mM MgCl2; 1x TB assembly buffer; no fluorescence activation
# [5] = system: Mango construct (RNA, aptamer) GGGAGAUCGUCCUAAGCGCUUUCGAGCGUUUAGCCUGGGUCGCGAAGGGACGGUGCGGAGAGGAGAGCGACUCAGGGAUGGUGAAGCCUCCACGCCAUCGACGGUCUCCCGAUACUCAUCGCGACUGAAGGAGGCACGGUCGGCAUUGUACUUCGGUACGAUGCGCAAGCGACUUCGGUCGUUUGCCGAUGGGUAUC; test: fluorescence titration of RNA with fluorophore; conditions: 125 mM KCl, 1 mM MgCl2; 1x TB assembly buffer; 20 nM RNA; fluorophore 1 nM to 2 µM; apparent
smiles,measurement,setting,value
CC1=N/C(=C\c2cc(F)c(O)c(F)c2)C(=O)N1CC(F)(F)F,binding,[1],no
same,EC50,[2]; fluorophore 1 nM to 2 µM,337.5 nM
same,EC50,[3],598.9 nM
same,binding,[4],no
CN1C=CC(=CC=Cc2oc3ccccc3[n+]2CC(=O)NCCOCCOCCOCCNC(=O)CCCC[C@@H]2SC[C@@H]3NC(=O)N[C@@H]32)c2ccccc21,EC50,[5],25.6 nM
same,EC50,[2]; fluorophore 1 nM to 2 µM (value above range),3920 nM
same,EC50,[3],1700 nM
